From the NIST ThermoML archive (doi:10.1021/je300768j) come the findings set out here.

The conditions of this series: DTA.

Numbers after ± are expanded uncertainties.

Regarding `CC(=O)[O-].CCn1cc[n+](C)c1` [1-ethyl-3-methylimidazolium acetate], the Glass transition temperature was -75.50 ± 3 °C.
